Assay results taken from ChEMBL document CHEMBL5360646, “Optimization of M3 Antagonist-PDE4 Inhibitor (MAPI) Dual Pharmacology Molecules for the Treatment of COPD” (J Med Chem, 2023).
pIC50, pKi: −log10 of the molar value. Values after ≈ are worked out from the molar mass of the structure shown. Active and inactive are the calls of the source. The rule behind the calls is not given here.

Columns and labels:
[1] = molecular target: 3',5'-cyclic-AMP phosphodiesterase 4A (Homo sapiens, UniProt P27815); experiment: Inhibition of human recombinant PDE4A4 expressed in baculovirus expression system using cAMP as substrate by radiometric assay
Chain of 3',5'-cyclic-AMP phosphodiesterase 4A (P27815 whole entry): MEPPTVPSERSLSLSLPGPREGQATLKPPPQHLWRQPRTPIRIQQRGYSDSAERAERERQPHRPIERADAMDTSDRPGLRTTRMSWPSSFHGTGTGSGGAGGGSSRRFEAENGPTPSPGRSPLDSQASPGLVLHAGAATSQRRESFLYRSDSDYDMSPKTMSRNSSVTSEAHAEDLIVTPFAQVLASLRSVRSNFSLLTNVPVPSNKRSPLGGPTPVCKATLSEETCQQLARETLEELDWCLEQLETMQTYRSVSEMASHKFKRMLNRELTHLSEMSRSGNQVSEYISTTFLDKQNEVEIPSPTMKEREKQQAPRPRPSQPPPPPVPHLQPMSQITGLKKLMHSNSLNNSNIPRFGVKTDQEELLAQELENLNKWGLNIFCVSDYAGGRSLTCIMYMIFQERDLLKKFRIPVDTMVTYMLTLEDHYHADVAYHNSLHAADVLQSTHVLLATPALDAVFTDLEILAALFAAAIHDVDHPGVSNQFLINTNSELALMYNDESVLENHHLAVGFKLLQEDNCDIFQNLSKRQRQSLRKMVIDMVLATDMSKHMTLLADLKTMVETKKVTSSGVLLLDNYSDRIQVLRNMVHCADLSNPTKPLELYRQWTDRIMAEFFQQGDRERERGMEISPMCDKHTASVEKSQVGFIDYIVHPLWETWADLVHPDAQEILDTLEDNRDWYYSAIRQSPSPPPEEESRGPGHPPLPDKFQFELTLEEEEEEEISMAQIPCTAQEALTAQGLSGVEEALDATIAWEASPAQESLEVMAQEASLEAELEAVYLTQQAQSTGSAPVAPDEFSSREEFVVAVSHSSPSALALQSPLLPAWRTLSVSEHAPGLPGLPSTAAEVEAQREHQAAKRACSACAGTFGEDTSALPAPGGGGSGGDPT

[2] = molecular target: Dual specificity calcium/calmodulin-dependent 3',5'-cyclic nucleotide phosphodiesterase 1A (Homo sapiens) (UniProt P54750); experiment: Inhibition of human recombinant PDE1A3 expressed in baculovirus expression system using cAMP as substrate at 1 uM by radiometric assay
Chain of Dual specificity calcium/calmodulin-dependent 3',5'-cyclic nucleotide phosphodiesterase 1A (Homo sapiens) (P54750 whole entry): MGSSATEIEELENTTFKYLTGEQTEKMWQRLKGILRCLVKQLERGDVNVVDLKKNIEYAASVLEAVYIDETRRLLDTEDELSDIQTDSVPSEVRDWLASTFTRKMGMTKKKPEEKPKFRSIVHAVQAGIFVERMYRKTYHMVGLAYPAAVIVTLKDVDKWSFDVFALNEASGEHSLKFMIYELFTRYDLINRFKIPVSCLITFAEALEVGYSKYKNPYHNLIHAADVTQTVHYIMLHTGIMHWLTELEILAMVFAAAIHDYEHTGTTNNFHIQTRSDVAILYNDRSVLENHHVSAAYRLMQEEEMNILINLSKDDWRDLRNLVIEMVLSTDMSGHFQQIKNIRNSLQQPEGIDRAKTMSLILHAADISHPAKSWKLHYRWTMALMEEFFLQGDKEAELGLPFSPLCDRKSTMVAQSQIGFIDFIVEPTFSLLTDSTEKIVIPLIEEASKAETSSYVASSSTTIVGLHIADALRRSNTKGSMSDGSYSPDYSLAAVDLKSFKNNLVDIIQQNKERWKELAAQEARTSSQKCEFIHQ

[3] = molecular target: T1, Muscarinic acetylcholine receptor M2 (Homo sapiens, UniProt P08172); experiment: Displacement of [3H]N-methylscopolamine chloride from human muscarinic M2 receptor incubated for 2 hrs by radioligand binding assay
T1 sequence (P08172 whole entry): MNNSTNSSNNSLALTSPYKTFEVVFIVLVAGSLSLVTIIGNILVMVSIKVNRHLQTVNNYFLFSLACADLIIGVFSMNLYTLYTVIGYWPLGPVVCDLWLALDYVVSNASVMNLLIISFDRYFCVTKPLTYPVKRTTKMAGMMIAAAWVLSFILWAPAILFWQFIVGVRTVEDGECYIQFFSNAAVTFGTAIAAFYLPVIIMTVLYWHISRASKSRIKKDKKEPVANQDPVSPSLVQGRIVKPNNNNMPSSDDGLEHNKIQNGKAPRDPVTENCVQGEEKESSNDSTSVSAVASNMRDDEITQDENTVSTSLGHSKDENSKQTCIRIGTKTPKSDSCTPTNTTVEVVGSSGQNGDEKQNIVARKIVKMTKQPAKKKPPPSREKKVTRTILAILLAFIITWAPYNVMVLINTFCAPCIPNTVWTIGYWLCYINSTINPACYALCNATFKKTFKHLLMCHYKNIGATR

[4] = Toxicity in ferret assessed as appearance of nausea-like behavior at 10 nmol/kg, IT(Intratracheal) and measured for 4 hrs by behavioral analysis; parameters: species or system Mustela putorius furo; conditions: in vivo, inhaled_or_intranasal
[5] = AUClast in Sprague-Dawley rat plasma at 10 ug,IT(Intratracheal) by HPLC-MS/MS analysis; assay type: ADME, cell-free; parameters: dose 10 µg, route it(Intratracheal); conditions: inhaled or intranasal
[6] = molecular target: 3',5'-cyclic-AMP phosphodiesterase 4D (Homo sapiens, UniProt Q08499); experiment: Inhibition of human recombinant PDE4D3 expressed in baculovirus expression system using cAMP as substrate by radiometric assay
Chain of 3',5'-cyclic-AMP phosphodiesterase 4D (Q08499 whole entry): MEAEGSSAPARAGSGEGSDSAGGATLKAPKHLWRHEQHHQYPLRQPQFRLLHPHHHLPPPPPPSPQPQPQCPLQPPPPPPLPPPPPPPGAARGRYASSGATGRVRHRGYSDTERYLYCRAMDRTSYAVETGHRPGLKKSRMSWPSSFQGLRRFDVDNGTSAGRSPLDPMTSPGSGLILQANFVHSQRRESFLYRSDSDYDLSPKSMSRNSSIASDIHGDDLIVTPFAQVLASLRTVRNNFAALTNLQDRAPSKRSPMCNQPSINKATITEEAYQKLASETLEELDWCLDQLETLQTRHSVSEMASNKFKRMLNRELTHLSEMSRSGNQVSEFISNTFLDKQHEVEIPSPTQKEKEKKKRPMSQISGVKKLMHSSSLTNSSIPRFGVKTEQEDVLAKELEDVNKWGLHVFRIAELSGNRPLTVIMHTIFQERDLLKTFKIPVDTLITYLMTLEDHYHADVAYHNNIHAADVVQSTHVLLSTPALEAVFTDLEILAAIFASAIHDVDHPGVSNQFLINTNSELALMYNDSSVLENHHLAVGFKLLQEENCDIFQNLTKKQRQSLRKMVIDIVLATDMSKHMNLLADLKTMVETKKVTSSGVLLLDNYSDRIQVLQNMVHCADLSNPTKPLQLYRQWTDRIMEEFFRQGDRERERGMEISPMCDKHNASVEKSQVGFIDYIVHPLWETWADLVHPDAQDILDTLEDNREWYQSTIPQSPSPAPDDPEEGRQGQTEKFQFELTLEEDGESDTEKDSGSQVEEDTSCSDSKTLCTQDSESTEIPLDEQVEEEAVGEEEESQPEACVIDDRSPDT

[7] = Toxicity in ferret assessed as appearance of nausea-like behavior at 10 nmol/kg,po and measured for 4 hrs by behavioral analysis; parameters: species or system Mustela putorius furo; conditions: in vivo
[8] = system: Rattus norvegicus; experiment: Anti-inflammatory activity against OVA-sensitized Brown-Norway rat airway inflammation model assessed as inhibition of OVA-induced eosinophil influx at 10 nmol/kg,IT(Intratracheal) pretreated 2 hrs prior to OVA challenge by automated cell counter analysis; assay type: functional; parameters: scale not given: the % may be the effect or the level left
[9] = Solubility of compound simulated lung fluid at 1 mg/ml and measured at 0 hr by UPLC-MS analysis; assay type: physicochemical
[10] = system: Rattus norvegicus; experiment: Anti-inflammatory activity against OVA-sensitized Brown-Norway rat airway inflammation model assessed as inhibition of OVA-induced eosinophil influx in BALF at 30 nmol/kg, IT(Intratracheal) pretreated 24 hrs prior to OVA challenge and measured after 48 hrs by automated cell counter analysis; assay type: functional; parameters: scale not given: the % may be the effect or the level left
[11] = system: Rattus norvegicus; experiment: Anti-inflammatory activity against OVA-sensitized Brown-Norway rat airway inflammation model assessed as inhibition of OVA-induced eosinophil influx at 100 nmol/kg,IT(Intratracheal) pretreated 2 hrs prior to OVA challenge by automated cell counter analysis; assay type: functional; parameters: scale not given: the % may be the effect or the level left
[12] = Toxicity in pilocarpine hydrochloride induced salivation Sprague-Dawley rat model assessed as inhibition of salivary secretion at 3 mM,INH for 10 mins; conditions: in vivo, inhaled_or_intranasal, 10 min, 3000 µM
[13] = AUC (0 to infinity) in Sprague-Dawley rat lung at 10 ug,IT(Intratracheal) by HPLC-MS/MS analysis; assay type: ADME, tissue-based; parameters: dose 10 µg, route it(Intratracheal); conditions: in vivo, inhaled_or_intranasal
[14] = molecular target: 3',5'-cyclic-AMP phosphodiesterase 4C (Homo sapiens, UniProt Q08493); experiment: Inhibition of human recombinant PDE4C2 expressed in baculovirus expression system using cAMP as substrate by radiometric assay
Chain of 3',5'-cyclic-AMP phosphodiesterase 4C (Q08493 whole entry): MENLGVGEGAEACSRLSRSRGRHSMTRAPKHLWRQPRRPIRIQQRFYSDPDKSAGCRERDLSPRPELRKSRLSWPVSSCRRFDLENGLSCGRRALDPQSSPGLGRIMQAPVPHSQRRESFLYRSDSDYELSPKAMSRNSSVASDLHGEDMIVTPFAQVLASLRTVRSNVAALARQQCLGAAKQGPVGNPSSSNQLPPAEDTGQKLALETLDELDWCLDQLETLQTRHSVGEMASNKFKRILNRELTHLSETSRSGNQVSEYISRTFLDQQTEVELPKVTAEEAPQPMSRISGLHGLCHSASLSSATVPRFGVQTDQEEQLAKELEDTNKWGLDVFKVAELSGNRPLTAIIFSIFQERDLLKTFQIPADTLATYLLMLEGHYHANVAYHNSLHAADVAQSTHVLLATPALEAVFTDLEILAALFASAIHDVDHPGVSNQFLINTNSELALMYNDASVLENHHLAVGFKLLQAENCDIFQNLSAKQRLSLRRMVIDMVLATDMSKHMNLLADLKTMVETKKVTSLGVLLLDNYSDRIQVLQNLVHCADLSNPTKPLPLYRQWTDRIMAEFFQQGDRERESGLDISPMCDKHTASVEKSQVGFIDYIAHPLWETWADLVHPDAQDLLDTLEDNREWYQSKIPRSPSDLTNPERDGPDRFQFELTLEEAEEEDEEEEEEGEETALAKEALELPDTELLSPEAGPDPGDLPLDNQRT

[15] = system: Rattus norvegicus; experiment: Anti-bronchospastic activity in carbachol-induced bronchospasm Sprague-Dawley rat model assessed as inhibition of carbachol-induced bronchoconstriction administered IT(Intratracheal) for 1 hr prior to carbachol challenge; assay type: functional; conditions: Rattus norvegicus, Sprague-Dawley, read-out: ED50
[16] = Solubility of compound simulated lung fluid at 1 mg/ml and measured at 2 hr by UPLC-MS analysis; assay type: physicochemical
[17] = Half life in Sprague-Dawley rat lung at 10 ug,IT(Intratracheal) by HPLC-MS/MS analysis; assay type: ADME, tissue-based; conditions: inhaled or intranasal, dose 10 µg
[18] = molecular target: T2, 3',5'-cyclic-AMP phosphodiesterase 4B (Homo sapiens, UniProt Q07343); experiment: Inhibition of human recombinant PDE4B2 expressed in baculovirus expression system using cAMP as substrate by radiometric assay
T2 sequence (Q07343 whole entry): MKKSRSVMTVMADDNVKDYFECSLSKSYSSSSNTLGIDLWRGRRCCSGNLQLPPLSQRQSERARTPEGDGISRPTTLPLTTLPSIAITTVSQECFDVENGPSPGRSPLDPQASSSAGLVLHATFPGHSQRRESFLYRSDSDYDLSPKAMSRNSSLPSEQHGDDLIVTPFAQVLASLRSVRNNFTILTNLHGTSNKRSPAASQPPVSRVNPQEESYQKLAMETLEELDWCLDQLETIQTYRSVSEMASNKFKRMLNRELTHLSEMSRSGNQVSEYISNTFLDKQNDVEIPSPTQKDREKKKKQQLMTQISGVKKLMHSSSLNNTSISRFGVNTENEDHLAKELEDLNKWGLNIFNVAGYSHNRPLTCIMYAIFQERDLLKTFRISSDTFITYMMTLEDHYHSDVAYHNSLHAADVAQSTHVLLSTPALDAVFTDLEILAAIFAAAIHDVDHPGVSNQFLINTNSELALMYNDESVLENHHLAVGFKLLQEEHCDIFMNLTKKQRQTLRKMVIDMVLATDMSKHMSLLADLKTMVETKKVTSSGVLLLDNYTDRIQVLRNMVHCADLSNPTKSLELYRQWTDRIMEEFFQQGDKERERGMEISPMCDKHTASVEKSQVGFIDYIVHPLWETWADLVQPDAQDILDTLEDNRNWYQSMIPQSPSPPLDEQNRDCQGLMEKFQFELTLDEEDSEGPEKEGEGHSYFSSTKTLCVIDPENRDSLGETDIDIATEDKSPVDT

[19] = system: Rattus norvegicus; experiment: Anti-inflammatory activity against OVA-sensitized Brown-Norway rat airway inflammation model assessed as inhibition of OVA-induced eosinophil influx administered IT(Intratracheal) pretreated 24 hrs prior to OVA challenge and measured after 48 hrs by automated cell counter analysis; assay type: functional; conditions: time 72 hrs
[20] = system: Rattus norvegicus; experiment: Anti-inflammatory activity against OVA-sensitized Brown-Norway rat airway inflammation model assessed as inhibition of OVA-induced eosinophil influx at 1 nmol/kg,IT(Intratracheal) pretreated 2 hrs prior to OVA challenge by automated cell counter analysis; assay type: functional; parameters: scale not given: the % may be the effect or the level left
[21] = Cmax in Sprague-Dawley rat plasma at 10 ug,IT(Intratracheal) by HPLC-MS/MS analysis; assay type: ADME, cell-free; parameters: dose 10 µg, route it(Intratracheal); conditions: inhaled or intranasal
[22] = system: Rattus norvegicus; experiment: Anti-inflammatory activity against OVA-sensitized Brown-Norway rat airway inflammation model assessed as inhibition of OVA-induced eosinophil influx at 1000 nmol/kg,IT(Intratracheal) pretreated 24 hrs prior to OVA challenge and measured after 48 hrs by automated cell counter analysis; assay type: functional; parameters: scale not given: the % may be the effect or the level left; conditions: time 72 hrs
[23] = molecular target: T2, 3',5'-cyclic-AMP phosphodiesterase 4B; experiment: Inhibition of human recombinant PDE4B2 expressed in baculovirus expression system using cAMP as substrate incubated for 2 hrs by HTRF assay
[24] = Toxicity in ferret assessed as emetic response at 10 nmol/kg,po and measured for 4 hrs by behavioral analysis; parameters: species or system Mustela putorius furo; conditions: in vivo
[25] = Toxicity in pilocarpine hydrochloride induced salivation Sprague-Dawley rat model assessed as inhibition of salivary secretion at 1 mM,INH for 10 mins; conditions: in vivo, inhaled_or_intranasal, 1000 µM
[26] = molecular target: Muscarinic acetylcholine receptor M3 (Homo sapiens, UniProt P20309); experiment: Displacement of [3H]N-methylscopolamine chloride from human muscarinic M3 receptor incubated for 2 hrs by radioligand binding assay
Chain of Muscarinic acetylcholine receptor M3 (P20309 whole entry): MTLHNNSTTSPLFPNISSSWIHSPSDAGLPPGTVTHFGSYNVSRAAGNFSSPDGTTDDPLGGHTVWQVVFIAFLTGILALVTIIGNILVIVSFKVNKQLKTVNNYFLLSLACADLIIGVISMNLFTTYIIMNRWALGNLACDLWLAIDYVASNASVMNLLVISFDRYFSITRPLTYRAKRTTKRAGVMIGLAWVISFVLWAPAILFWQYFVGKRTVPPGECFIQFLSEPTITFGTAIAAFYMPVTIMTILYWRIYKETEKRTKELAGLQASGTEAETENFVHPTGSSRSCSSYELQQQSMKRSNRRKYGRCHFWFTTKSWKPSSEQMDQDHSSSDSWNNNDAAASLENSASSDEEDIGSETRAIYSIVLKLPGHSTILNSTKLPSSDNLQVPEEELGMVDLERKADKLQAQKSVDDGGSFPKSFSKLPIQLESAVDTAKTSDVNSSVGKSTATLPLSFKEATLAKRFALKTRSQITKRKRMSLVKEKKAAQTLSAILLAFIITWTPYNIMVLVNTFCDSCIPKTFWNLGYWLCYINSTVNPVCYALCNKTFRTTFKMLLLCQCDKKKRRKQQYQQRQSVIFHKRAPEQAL

[27] = system: Rattus norvegicus; experiment: Anti-inflammatory activity against OVA-sensitized Brown-Norway rat airway inflammation model assessed as inhibition of OVA-induced eosinophil influx at 10 nmol/kg,IT(Intratracheal) pretreated 24 hrs prior to OVA challenge and measured after 48 hrs by automated cell counter analysis; assay type: functional; parameters: scale not given: the % may be the effect or the level left
[28] = Toxicity in ferret assessed as emetic response at 10 nmol/kg, IT(Intratracheal) and measured for 4 hrs by behavioral analysis; parameters: species or system Mustela putorius furo; conditions: in vivo, inhaled_or_intranasal
[29] = molecular target: cGMP-specific 3',5'-cyclic phosphodiesterase (Homo sapiens) (UniProt O76074); experiment: Inhibition of human recombinant PDE5 catalytic domain expressed in baculovirus expression system using […] as substrate at 1 uM by radiometric assay
[30] = Antiinflammatory activity against LPS-stimulated human PBMC cells assessed reduction in TNFalpha level incubated for 18 hrs by ELISA analysis; assay type: functional, cell-based; conditions: Homo sapiens, PBMC, 18 h
[31] = Ratio of ED50 for Anti-inflammatory activity against OVA-sensitized Brown-Norway rat airway inflammation model to ED50 for Anti-bronchospastic activity in carbachol-induced bronchospasm Sprague-Dawley rat model; assay type: functional
[32] = Cmax in Sprague-Dawley rat lung at 10 ug,IT(Intratracheal) by HPLC-MS/MS analysis; assay type: ADME, tissue-based; parameters: dose 10 µg, route it(Intratracheal); conditions: inhaled or intranasal
[33] = system: Rattus norvegicus; experiment: Anti-bronchospastic activity in carbachol-induced bronchospasm Sprague-Dawley rat model assessed as inhibition of carbachol-induced bronchoconstriction at 30 nmol/kg, IT(Intratracheal) administered 1 hr prior to carbachol challenge; assay type: functional; parameters: scale not given: the % may be the effect or the level left
[34] = system: Rattus norvegicus; experiment: Anti-inflammatory activity against OVA-sensitized Brown-Norway rat airway inflammation model assessed as inhibition of OVA-induced eosinophil influx administered IT(Intratracheal) 2 hrs prior to OVA challenge; assay type: functional
[35] = system: Rattus norvegicus; experiment: Anti-inflammatory activity against OVA-sensitized Brown-Norway rat airway inflammation model assessed as inhibition of OVA-induced eosinophil influx at 100 nmol/kg,IT(Intratracheal) pretreated 24 hrs prior to OVA challenge and measured after 48 hrs by automated cell counter analysis; assay type: functional; parameters: scale not given: the % may be the effect or the level left; conditions: time 72 hrs
[36] = molecular target: cGMP-inhibited 3',5'-cyclic phosphodiesterase 3A (Homo sapiens) (UniProt Q14432); experiment: Inhibition of human recombinant PDE3A expressed in baculovirus expression system using cAMP as substrate at 1 uM by radiometric assay
[37] = system: Rattus norvegicus; experiment: Anti-bronchospastic activity in carbachol-induced bronchospasm Sprague-Dawley rat model assessed as inhibition of carbachol-induced bronchoconstriction at 30 nmol/kg, IT(Intratracheal) administered 16 hr prior to carbachol challenge; assay type: functional; parameters: scale not given: the % may be the effect or the level left
[38] = system: Trachea; experiment: Bronchoconstriction activity in Sprague-Dawley rat trachea assessed as inhibition of carbachol-induced tracheal contraction; assay type: functional, tissue-based; conditions: Rattus norvegicus, Sprague-Dawley, Trachea
[39] = Metabolic stability in human lung S9 fraction assessed as half life at 1 uM and measured upto 60 mins in presence of NADPH by LC-MS/MS analysis; assay type: ADME, subcellular; conditions: lung S9 fraction
[40] = system: Rattus norvegicus; experiment: Anti-bronchospastic activity in carbachol-induced bronchospasm Sprague-Dawley rat model assessed as inhibition of carbachol-induced bronchoconstriction at 3 nmol/kg, IT(Intratracheal) administered 16 hr prior to carbachol challenge; assay type: functional; parameters: scale not given: the % may be the effect or the level left
[41] = Metabolic stability in human liver microsomes assessed as intrinsic clerance at 1 uM and measured upto 60 mins by HPLC-MS/MS analysis; assay type: ADME, Microsome; conditions: liver microsomes, read-out: CLH
[42] = Metabolic stability in rat plasma assessed as half life at 5 uM and measured upto 180 mins by HPLC-MS/MS analysis; assay type: ADME, cell-free
[43] = Metabolic stability in rat liver microsomes assessed as intrinsic clerance at 1 uM and measured upto 60 mins by HPLC-MS/MS analysis; assay type: ADME, Microsome; conditions: liver microsomes, read-out: CLH
[44] = Metabolic stability in rat lung S9 fraction assessed as half life at 1 uM and measured upto 60 mins in presence of NADPH by LC-MS/MS analysis; assay type: ADME, subcellular; conditions: lung S9 fraction
[45] = system: Rattus norvegicus; experiment: Anti-bronchospastic activity in carbachol-induced bronchospasm Sprague-Dawley rat model assessed as inhibition of carbachol-induced bronchoconstriction at 3 nmol/kg, IT(Intratracheal) administered 1 hr prior to carbachol challenge; assay type: functional; parameters: scale not given: the % may be the effect or the level left
[46] = Antiinflammatory activity against LPS-stimulated rat PBMC cells assessed reduction in TNFalpha level incubated for 18 hrs by ELISA analysis; assay type: functional, cell-based
[47] = Metabolic stability in human plasma assessed as half life at 5 uM and measured upto 180 mins by HPLC-MS/MS analysis; assay type: ADME, cell-free

CCOc1cc([C@H](Cc2c(Cl)c[n+]([O-])cc2Cl)OC(=O)c2ccc(CN[C@@](CO)(C(=O)O[C@H]3CN4CCC3CC4)c3ccccc3)s2)ccc1OC
pIC50 [1]: 10.50 | inhibition [2]: inactive | pKi [3]: 8.00 | Activity [4]: Non-Toxic | AUC(0-t) [5]: 3.7 ng·h/mL | pIC50 [6]: 9.40 | Activity [7]: Non-Toxic | Activity [8]: 60% | solubility at 0 h [9]: 3.3 µg/mL (≈ 4.28 µM) | Activity [10]: 63% | Activity [11]: 92% | Activity [12]: Non-Toxic | AUC [13]: 9242 ng·h/g | pIC50 [14]: 10.60 | ED50 [15]: 0.007 µmol/kg | solubility at 2 h [16]: 1.6 µg/mL (≈ 2.08 µM) | half-life [17]: 258 min | pIC50 [18]: 10.40 | ED50 [19]: 0.016 µmol/kg | Activity [20]: 28% | Cmax [21]: 2 ng/mL | Activity [22]: >100% | pIC50 [23]: 9.00 | Activity [24]: Non-Toxic | Activity [25]: Non-Toxic | pKi [26]: 9.20 | Activity [27]: 45% | Activity [28]: Non-Toxic | inhibition [29]: inactive | pIC50 [30]: 9.50 | Ratio ED50 [31]: 1 | Cmax [32]: 6270 ng/g | Activity [33]: 80% | ED50 [34]: 0.007 µmol/kg | Activity [35]: 72% | inhibition [36]: inactive | Activity [37]: 83% | pIC50 [38]: 7.90

COc1ccc([C@H](Cc2c(Cl)c[n+]([O-])cc2Cl)OC(=O)c2ccc(CN[C@@H](C(=O)O[C@H]3CN4CCC3CC4)c3ccccc3)s2)cc1OC
half-life at 1 µM [39]: 69 min | Activity [40]: 67% | microsomal CLint at 1 µM [41]: 213 µL/min/mg | half-life at 5 µM [42]: 9 min | ED50 [15]: 0.0007 µmol/kg | microsomal CLint at 1 µM [43]: 126 µL/min/mg | pIC50 [23]: 8.80 | half-life at 1 µM [44]: 15 min | pKi [26]: 10.20 | pIC50 [30]: 8.80 | Ratio ED50 [31]: 42 | ED50 [34]: 0.03 µmol/kg | Activity [45]: 74% | pIC50 [38]: 9.00 | pIC50 [46]: 8.70 | half-life at 5 µM [47]: 11 min
